Assay [1] has as its target T1, murine SR-BI (Mus musculus, UniProt Q61009).
T1 construct: expressed in transfected cells; host or cells: ldlA-7 (LDL receptor deficient Chinese hamster ovary cells)
T1 sequence (Q61009 1-509): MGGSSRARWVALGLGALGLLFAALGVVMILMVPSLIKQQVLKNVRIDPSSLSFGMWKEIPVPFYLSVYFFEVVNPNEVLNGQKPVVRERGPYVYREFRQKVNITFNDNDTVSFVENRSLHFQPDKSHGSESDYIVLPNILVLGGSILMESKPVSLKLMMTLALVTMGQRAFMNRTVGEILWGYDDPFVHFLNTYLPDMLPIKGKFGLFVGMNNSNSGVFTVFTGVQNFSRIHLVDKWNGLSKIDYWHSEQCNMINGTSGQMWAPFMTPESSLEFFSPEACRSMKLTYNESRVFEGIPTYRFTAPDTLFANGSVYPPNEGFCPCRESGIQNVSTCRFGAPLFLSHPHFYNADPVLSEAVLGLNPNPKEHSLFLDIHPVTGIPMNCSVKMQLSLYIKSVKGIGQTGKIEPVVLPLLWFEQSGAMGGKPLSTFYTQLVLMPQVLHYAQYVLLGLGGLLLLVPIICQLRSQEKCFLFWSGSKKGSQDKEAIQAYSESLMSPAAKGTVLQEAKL
Nature of the assay: 125I-HDL binding to ldlA[mSR-BI] cells. The method, then: (§1) Cells were pre-incubated with BLTs for 1 hr (or 2.5 hrs for transferrin, EGF and cholera toxin uptake experiments) and all the experiments were performed at 37° C. Detailed characterization of the BLTs and their effects was performed with compounds whose identities and purities were confirmed by LC-MS.
(§2) Assays for the uptake of lipids from DiI-HDL and [^3]CE-HDL, efflux of [^3H]cholesterol from labeled cells, and ^125I-HDL binding were performed as described by Acton et al. Science (1996) January 26;271(5248):518-20; Gu, et al. J Biol. Chem. (2000) September 29;275(39):29993-30001; and Ji, et al., J. Biol. Chem. (1997) 272, 20982-5. In some experiments, values were normalized so that the 100% of control represents activity in the absence of compounds and 0% represents activity determined in the presence of a 40-fold excess of unlabeled HDL or, for Y1-BS1 cells, in the presence of a 1:500 dilution of the KKB-1 blocking antibody (Gu, et al., 2000, generous gift from Karen Kozarsky). The amounts of cell-associated [^3H]cholesteryl ether are expressed as the equivalent amount of [^3H]CE-HDL protein (ng) to permit direct comparison of the relative amounts of ^125I-HDL binding and [^3H]CE uptake.
It was initially expected that the BLTs would function by inhibiting HDL binding to SR-BI. However, when cells were incubated with a sub-saturating concentration of either [^3H]CE-HDL or ^125I-labeled HDL (^125I-HDL) (10 μg protein/ml) and increasing amounts of compound (FIG. 5), the decreases in [^3H]CE uptake (solid lines, no symbols, data from FIG. 2B) and [3H]cholesterol efflux (dashed lines, data from FIG. 2C) were accompanied by corresponding increases in ^125I-HDL binding (solid lines, square symbols). The concentration dependence of ^125I-HDL binding was determined in the presence or absence of BLTs at their ICCE95 concentrations (FIG. 6 and Table II).

Assay [2] deals with BSC-1 cells. The class given is cell-based, monkey. The settings on record: BLTs at ICCE95, 50 micromolar BLT-1, 3 hrs.
The target of assay [3] is T1, murine SR-BI. The assay is described as follows: Rate of 125I-HDL dissociation from cells. The settings on record: dissociation of 125I-HDL from ldlA[mSR-BI] cells in presence of BLT; no BLT control 0.11; n=2; read-out: (B) Binding Parameters Koff (converted). How it is done: The rates of HDL dissociation from cells were determined by incubation of the cells with ^125I-HDL (10 μg protein/ml, 2 hrs, 37° C.) with and without BLTs. The medium was then either replaced with the same medium in which the ^125I-HDL was substituted by a 40-fold excess of unlabeled HDL or a 40-fold excess of unlabeled HDL was added to the labeled incubation medium. The amounts of cell-associated ^125I-HDL were then determined as a function of time. The two methods gave similar results.

Assay [4] has as its target T1, murine SR-BI. Nature of the assay: Efflux of [3H]cholesterol from ldlA[mSR-BI] cells to HDL. Format: cell-based. The settings on record: inhibition of efflux to HDL, mean ± SD, n=3. How it is done: as §1, §2
In addition to mediating selective lipid uptake from HDL, SR-BI can facilitate the efflux of unesterified cholesterol from cells to HDL particles (Jian, et al. (1998) J Biol Chem 273, 5599-606. Ji, et al. (1997) J. Biol. Chem. 272, 20982-5). To determine if the BLTs could inhibit this SR-BI-mediated lipid transport activity, cells were labeled with [^3H]cholesterol and its efflux to unlabeled HDL measured in the presence or absence of the BLTs. (FIG. 2C, table II). Cells were incubated for 3 hrs in the absence (top panels) or presence (bottom panels) of 50 micromolar BLT-1 (MIT 9952-53) and epifluorescence light microscopy was used to monitor the following cellular activities: clathrin-dependent endocytosis of fluorescently labeled transferrin (A,B; HeLa cells) and EGF (C,D; HeLa cells); clathrin-independent endocytosis of fluorescently labeled cholera toxin (E, F; BSC-1 cells), and transport of the temperature sensitive fluorescent membrane protein VSVG^ts045-EGFP from the ER to the cell surface (G,H; BSC-1 cells). In addition, the intracellular distributions of the actin cytoskeleton (visualized with rhodamine labeled phalloidin, I,J; ldlA-[mSRBI] cells) and the tubulin network (visualized with fluorescently labeled antibodies specific to y-tubulin, K,L; BSC-1 cells) were determined. BLT-1 (MIT 9952-53) and the other BLTs (not shown) had no effects on any of these cellular properties or activities.

Another assay has as its system HeLa cells. The assay is described as follows: Receptor mediated endocytosis of labeled transferrin and EGF, fluorescence microscopy. The class given is cell-based. The settings on record: BLTs at ICCE95, 50 micromolar BLT-1, 3 hrs.
Assay [5] has as its system BSC-1 cells. Format: cell-based, monkey.
The subject of the next assay is ldlA[mSR-BI] cells. Nature of the assay: Distribution of actin and tubulin networks, fluorescence microscopy. Format: cell-based, Chinese hamster. The settings on record: BLTs at ICCE95; 50 micromolar BLT-1, 3 hrs.
The target of assay [6] is T1, murine SR-BI. Nature of the assay: Uptake of DiI from DiI-HDL by ldlA[mSR-BI] cells (high throughput screen and concentration dependence). The class given is cell-based.
The target in assay [7] is T1, murine SR-BI. Nature of the assay: Uptake of [3H]cholesteryl ether from [3H]CE-HDL by ldlA[mSR-BI] cells. Format: cell-based. How it is done: as §1, §2
A further assay deals with T2, SR-BI (Mus musculus, UniProt Q61009).
T2 construct: endogenous in cells; host or cells: Y1-BS1 murine adrenocortical cells (ACTH induced)
T2 sequence (Q61009 1-509): T1 sequence (Q61009 1-509)
The assay is described as follows: Uptake of [3H]CE from [3H]CE-HDL by Y1-BS1 adrenocortical cells. The class given is cell-based, murine. As to conditions: inhibition, n=2, read-out: (A) EC50 [^3H]CEt HDL uptake (Y1-BS1 cells).
Text: Biol. Chem. 273, 26338-48; Gu, et al. (2000) J. Biol. Chem. 275, 29993-30001; Acton, et al. (1994) J. Biol. Chem. 269, 21003-9; Pitas, et al. (1981) Arteriosclerosis 1, 177-85). LDL receptor deficient Chinese hamster ovary cells that express low levels of endogenous SR-BI, ldlA-7 (Kingsley, et al. (1984) Proc. Nat. Acad. Sci. USA 81, 5454-8), ldlA-7 cells stably transfected to express high levels of murine SR-BI (ldlA[mSR-BI])(Acton, et al., 1996), Y1-BS1 murine adrenocortical cells that express high levels of SR-BI after induction with ACTH (Rigotti, et al. (1996) J. Biol. Chem. 271, 33545-9), monkey kidney BS-C1 cells (Kapoor, et al. (2000) Journal of Cell Biology 150, 975-88) and HeLa cells (Temel, et al. (2002) J Biol Chem 8, 8) were maintained as previously described.
as §1, §2

Molecules are shown by their SMILES. Entries after “also recorded” stand apart in the source; their conditions may differ.

Usually EC50 stands for the midpoint of the concentration-response curve. A word on the koff: it is the rate constant with which the complex falls apart.

Regarding `CCCCCCC1CCC/C1=N\NC(N)=S` (stereo not shown) [MIT 9952-53], on murine SR-BI [1] (125I-HDL binding sites in presence of BLT at its ICCE95, no BLT control 100.0 ± 18.4), the “(B) Binding Parameters Bmax” value was 95.8 ± 10.1%. Besides, the “Effect on HDL binding to SR-BI” value on murine SR-BI [1] (ldlA[mSR-BI] cells) is “enhanced”. In addition, the EC50 on murine SR-BI [1] (ldlA[mSR-BI] cells, enhancement of HDL binding, 10 μg protein/ml HDL, mean ± SD, n=3, read-out: (A) EC50 ^1nI-HDL binding) turned out to be 88 ± 50 nM; at murine SR-BI [4] it was 150 ± 90 nM; on murine SR-BI [6] (ldlA[mSR-BI] cells, inhibition, mean ± SD, n=3) it was 60 ± 40 nM; on murine SR-BI [7] (inhibition, mean ± SD, n=6 (n=5 where footnoted), read-out: (A) EC50 [^3H]CEt HDL uptake), 110 ± 80 nM; at SR-BI, 380 nM. For the same compound, the “Uptake of labeled cholera toxin (clathrin-independent endocytosis)” value with BSC-1 cells [2] is “no effects”. Also, at murine SR-BI [3], the koff is 0.001 s⁻¹. Moreover, the “Uptake and intracellular distribution of labeled transferrin and EGF (clathrin-dependent endocytosis)” value in the assay on HeLa cells is listed as “no effects”. In addition, the “Secretory pathway: transport of VSVGts045-EGFP from ER to cell surface” value in the assay on BSC-1 cells [5] is reported as “no effects”. Besides, in the assay with ldlA[mSR-BI] cells, the “Integrity/distribution of actin and tubulin networks” value was “no effects”. Besides, the “ENDOHDL Test 1” value at murine SR-BI [6] (Test 1) is recorded as 0.53. For the same compound, the “ENDOHDL Test 2” value at murine SR-BI [6] (Test 2) worked out at 0.46. In addition, the “Inhibition of SR-BI-mediated lipid transport / DiI uptake, concentration range in words” value at murine SR-BI [6] (ldlA[mSR-BI] cells, listed as BLT-1) is reported as “low nanomolar concentration range; also recorded: inhibited in the nanomolar range”. Besides, at murine SR-BI [7], the “ICCE95 concentration (inhibits [3H]CE uptake by 95%)” value turned out to be 1 µM.

For the origin of these results see US20040171073A1, “Compounds for modulation of cholesterol transport” (Massachusetts Institute of Technology, priority 2002, published 2004).
